Test results as given in ChEMBL document CHEMBL1158440, “Linear disulfide-containing low polymer as efficient DNA cleavage reagent” (Bioorg Med Chem Lett, 2009).
Activity calls are given as the source filed them. The calls are words filed in the database; no cut-off is given here.

Assays:
Format in all cases: nucleic-acid assay
Nucleic Acid [1] = experiment: Induction of supercoiled Escherichia coli pUC19 cleavage assessed as formation of nicked DNA at 56 mg/L in phosphate buffered saline at pH 7.4 after 24 hrs by agarose gel electrophoresis in presence of potassium iodide
Nucleic Acid [2] = experiment: Induction of supercoiled Escherichia coli pUC19 cleavage assessed as formation of nicked DNA at 7 mg/L in phosphate buffered saline at pH 7.4 after 24 hrs by agarose gel electrophoresis relative to control
Nucleic Acid [3] = experiment: Induction of supercoiled Escherichia coli pUC19 cleavage assessed as formation of nicked DNA at 56 mg/L in phosphate buffered saline at pH 7.4 after 24 hrs by agarose gel electrophoresis in presence of DMSO
Nucleic Acid [4] = experiment: Induction of supercoiled Escherichia coli pUC19 cleavage assessed as formation of nicked DNA at 56 mg/L in phosphate buffered saline at pH 7.4 after 24 hrs by agarose gel electrophoresis relative to control
Nucleic Acid [5] = experiment: Induction of supercoiled Escherichia coli pUC19 cleavage assessed as formation of nicked DNA at 14 mg/L in phosphate buffered saline at pH 7.4 after 24 hrs by agarose gel electrophoresis relative to control
Nucleic Acid [6] = experiment: Induction of supercoiled Escherichia coli pUC19 cleavage assessed as formation of nicked DNA at 56 mg/L in phosphate buffered saline at pH 7.4 after 24 hrs by agarose gel electrophoresis in presence of NaN3
Nucleic Acid [7] = experiment: Induction of supercoiled Escherichia coli pUC19 cleavage assessed as formation of nicked DNA at 28 mg/L in phosphate buffered saline at pH 7.4 after 24 hrs by agarose gel electrophoresis relative to control
Calf thymus DNA = experiment: Binding affinity to calf thymus DNA assessed as change in melting temperature at 18 mg/L by spectrophotometry; settings: Bos taurus
Nucleic Acid [8] = experiment: Induction of supercoiled Escherichia coli pUC19 cleavage assessed as formation of nicked DNA at 56 mg/L in phosphate buffered saline at pH 7.4 after 24 hrs by agarose gel electrophoresis in presence of tert-butyl alcohol
Nucleic Acid [9] = experiment: Induction of supercoiled Escherichia coli pUC19 cleavage assessed as formation of nicked DNA at 56 mg/L in phosphate buffered saline at pH 7.4 after 8 hrs by agarose gel electrophoresis relative to control
Nucleic Acid [10] = experiment: Induction of supercoiled Escherichia coli pUC19 cleavage assessed as formation of nicked DNA at 56 mg/L in phosphate buffered saline at pH 7.4 upto 24 hrs by agarose gel electrophoresis relative to control

Activity (Nucleic Acid [1]) | Activity (Nucleic Acid [2]) [%] | Activity (Nucleic Acid [3]) | Activity (Nucleic Acid [4]) [%] | Activity (Nucleic Acid [5]) [%] | Activity (Nucleic Acid [6]) | Activity (Nucleic Acid [7]) [%] | ΔTm (Calf thymus DNA) [°C] | Activity (Nucleic Acid [8]) | Activity (Nucleic Acid [9]) | Activity (Nucleic Acid [10]) [%] | Structure (SMILES)
inactive | 31 | Active | 100 | 66 | inactive | 92 | 4 | inactive | Active |  | O=C(CS)N1CCNCCN(C(=O)CSSCC(=O)N2CCNCCN(C(=O)CSSCC(=O)N3CCNCCN(C(=O)CSSCC(=O)N4CCNCCN(C(=O)CSSCC(=O)N5CCNCCN(C(=O)CS)CCNCC5)CCNCC4)CCNCC3)CCNCC2)CCNCC1
 | 20 |  | 63 | 24 |  | 44 | 3.4 |  | 35% | 92 | O=C(CS)N1CCNCCN(C(=O)CS)CCNCC1
